In patent EP4603506A1, “NOVEL GLP-1 RECEPTOR ANTAGONIST, AND PHARMACEUTICAL COMPOSITION FOR PREVENTING OR TREATING CONGENITAL […] OR HYPOGLYCEMIA, COMPRISING SAME” (Hanmi Pharm. Co., Ltd., priority 2022, dated 2024):
Starred links: 1 amine or outer side, 2 acyl side, 3 side chain; linkers in the order of their positions; H or OH if unused. Residues, ends and D or L forms follow the SMILES beside them. Groups on a side chain read outwards from the residue. *: point of attachment. C18 diacid = O=C(O)CCCCCCCCCCCCCCCCC(=O)*; γGlu = O=C(O)[C@H](CCC(=O)[*:2])N[*:1]; AEEA = NCCOCCOCC(=O)O

Tests used:
human GLP-1R (hGLP-1R) = human GLP-1R (hGLP-1R) (Homo sapiens, UniProt P43220); assay: In vitro cell activity: cAMP inhibition (LANCE Ultra cAMP kit) in CHO cells expressing human GLP-1R, with GLP-1 added; assay type: cell-based; settings: relative activity from IC50 of cAMP inhibition; 0.1 nM GLP-1 added; comparative substance exendin-3 (9-39) amide = 100
Description: The human GLP-1R-expressed CHO cells were cultured in a 384-well plate for 24 hours. Thereafter, the culture was removed, and 10 µL of each serially diluted substance was added to the plate, followed by incubation at room temperature for 30 minutes. Then, 5 µL of Eu-cAMP tracer was added, and then 5 µL of a buffer containing cAMP antibodies was added, followed by incubation at room temperature for 60 minutes. […]

C57BL/6N mice = assay: Oral glucose tolerance test (OGTT), blood glucose levels; assay type: in vivo; settings: 2 g/kg oral glucose after 4-hour fasting, 3690 and 7380 µg/kg subcutaneous, 24 hours before OGTT, versus vehicle control, FIG. 1
Description: The test was conducted on 8-week-old male mice, and during the study, five mice were housed in each group and had free access to drinking water. The lights were turned off from 6 PM to 6 AM.
The administration of the drugs was completed 24 hours before the oral glucose tolerance test (OGTT) for Groups 1, 3, and 4, and 30 minutes before for Group 2. Particularly, the dose was expressed as a value based on the value obtained by subtracting the mass of the fatty acid moieties from the total mass of the acylated GLP-1 receptor antagonist analog conjugate, that is, the value obtained by summing the mass of each of only polypeptide moieties.
As for the OGTT, all the groups were orally administered 2 g/kg glucose once after 4-hour fasting, and then blood samples were consecutively collected from the tail vein at specific time intervals (0, 15, 30, 60, and 120 minutes) to measure blood glucose levels by a OneTouch blood glucose meter (OneTouch Select®, LifeScan, USA). Statistical analysis was performed using an unpaired t-test to compare between the control group and the test groups (# ~ ###p < 0.05 ~ 0.001).

[1] = system: PBH rat model (VSG, SD rats); assay: Mixed meal tolerance test (MMTT) in postbariatric hypoglycemia (PBH) rat model induced by vertical sleeve gastrectomy (VSG); assay type: in vivo; settings: MMTT 4 hours after 3720 µg/kg (1070.5 nmol/kg) subcutaneous, versus excipient, FIG. 2
Description: A PBH rat model was established by performing sham operations or VSG surgery on SD rats. The rats were fed a high-fat diet (HFD) for 19 weeks, and divided randomly into two groups with 10 animals each (an excipient control group and a GLP-1R antagonist analog conjugate administered group). […] As for the MMTT, all the groups were orally administered 2 mL of a mixed meal (Ensure Plus®, Abbott, USA) once after 5-hour fasting, and then blood samples were consecutively collected at specific time intervals (0, 15, 30, 45, 60, and 120 minutes) to measure blood glucose levels (GDoctor, Allmedicus Co., Korea). Statistical analysis was performed using the one-way ANOVA to compare between the VSG rat excipient group (control group) and the test groups (* ~ ***p < 0.05 ~ 0.001). Particularly, the dose was expressed as a value based on the value obtained by subtracting the mass of the fatty acid moieties from the total mass of the acylated GLP-1 receptor antagonist analog conjugate, that is, the value obtained by summing the masses of each of only polypeptide moieties.
Additionally, 15 minutes after the MMTT test, plasma was isolated from blood samples, and the insulin secretion level was measured using a rat insulin ELISA kit ([…], Merck Millipore, USA).

Chain of human GLP-1R (hGLP-1R) (P43220 24-463): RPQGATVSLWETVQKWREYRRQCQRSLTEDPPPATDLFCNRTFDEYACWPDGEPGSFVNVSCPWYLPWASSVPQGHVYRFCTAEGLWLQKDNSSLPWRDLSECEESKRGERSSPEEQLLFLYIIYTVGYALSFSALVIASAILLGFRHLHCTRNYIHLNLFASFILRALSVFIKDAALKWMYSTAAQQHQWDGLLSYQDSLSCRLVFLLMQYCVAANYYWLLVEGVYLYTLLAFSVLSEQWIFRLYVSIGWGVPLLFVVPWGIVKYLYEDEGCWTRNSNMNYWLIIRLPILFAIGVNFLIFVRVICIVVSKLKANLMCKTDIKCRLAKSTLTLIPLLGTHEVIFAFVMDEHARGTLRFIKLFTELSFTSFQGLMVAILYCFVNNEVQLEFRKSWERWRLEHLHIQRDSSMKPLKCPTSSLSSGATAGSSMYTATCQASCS

Molecule	In vitro activity compared with comparative substance (%) (human GLP-1R (hGLP-1R))	blood glucose levels (C57BL/6N mice)	blood glucose levels [1]
CC[C@H](C)[C@H](NC(=O)[C@H](Cc1ccccc1)NC(=O)[C@H](CC(C)C)NC(=O)[C@H](CCCNC(=N)N)NC(=O)[C@@H](NC(=O)[C@H](C)NC(=O)[C@H](CCC(=O)O)NC(=O)[C@H](CCC(=O)O)NC(=O)[C@H](CCC(=O)O)NC(=O)[C@H](CC(C)C)NC(=O)[C@H](Cc1ccc(O)cc1)NC(=O)[C@H](CO)NC(=O)[C@H](CO)NC(=O)[C@@H](NC(=O)[C@H](CC(=O)O)NC(C)=O)C(C)C)C(C)C)C(=O)N[C@@H](C)C(=O)N[C@@H](Cc1c[nH]c2ccccc12)C(=O)N[C@@H](CC(C)C)C(=O)N[C@H](C(=O)N[C@@H](CCCCN)C(=O)NCC(=O)NCC(=O)N1CCC[C@H]1C(=O)N[C@@H](CO)C(=O)N[C@@H](CO)C(=O)NCC(=O)N[C@@H](C)C(=O)N1CCC[C@H]1C(=O)N1CCC[C@H]1C(=O)N1CCC[C@H]1C(=O)N[C@@H](CO)C(=O)N[C@@H](CS)C(N)=O)C(C)C [SEQ ID NO: 12] (Ac-DVSSYLEEEAVRLFIAWLVKGGPSSGAPPPSC-NH2)	189.3	–	–
CC[C@H](C)[C@H](NC(=O)[C@H](Cc1ccccc1)NC(=O)[C@H](CC(C)C)NC(=O)[C@H](CCCNC(=N)N)NC(=O)[C@H](C)NC(=O)[C@H](C)NC(=O)[C@H](CCC(=O)O)NC(=O)[C@H](CCC(=O)O)NC(=O)[C@H](CCC(=O)O)NC(=O)[C@H](CC(C)C)NC(=O)[C@H](Cc1ccc(O)cc1)NC(=O)[C@H](CO)NC(=O)[C@H](CO)NC(=O)[C@H](CC(C)C)NC(=O)[C@H](CC(=O)O)NC(C)=O)C(=O)N[C@@H](CCC(=O)O)C(=O)N[C@@H](Cc1c[nH]c2ccccc12)C(=O)N[C@@H](CC(C)C)C(=O)N[C@@H](CCCCNC(=O)COCCOCCNC(=O)COCCOCCNC(=O)CC[C@H](NC(=O)CCCCCCCCCCCCCCCCC(=O)O)C(=O)O)C(=O)N[C@@H](CC(N)=O)C(=O)NCC(=O)NCC(=O)N1CCC[C@H]1C(=O)N[C@@H](CO)C(=O)N[C@@H](CO)C(=O)NCC(=O)N[C@@H](C)C(=O)N1CCC[C@H]1C(=O)N1CCC[C@H]1C(=O)N1CCC[C@H]1C(=O)N[C@@H](CO)C(N)=O [SEQ ID NO: 14]	1.7	–	–
CC[C@H](C)[C@H](NC(=O)[C@H](Cc1ccccc1)NC(=O)[C@H](CC(C)C)NC(=O)[C@H](CCCNC(=N)N)NC(=O)[C@@H](NC(=O)[C@H](C)NC(=O)[C@H](CCC(=O)O)NC(=O)[C@H](CCC(=O)O)NC(=O)[C@H](CCC(=O)O)NC(=O)[C@H](CC(C)C)NC(=O)[C@H](Cc1ccc(O)cc1)NC(=O)[C@H](CO)NC(=O)[C@H](CO)NC(=O)[C@@H](NC(=O)[C@H](CC(=O)O)NC(C)=O)C(C)C)C(C)C)C(=O)N[C@@H](C)C(=O)N[C@@H](Cc1c[nH]c2ccccc12)C(=O)N[C@@H](CC(C)C)C(=O)N[C@H](C(=O)N[C@@H](CCCCNC(=O)COCCOCCNC(=O)COCCOCCNC(=O)CC[C@H](NC(=O)CCCCCCCCCCCCCCCCC(=O)O)C(=O)O)C(=O)NCC(=O)NCC(=O)N1CCC[C@H]1C(=O)N[C@@H](CO)C(=O)N[C@@H](CO)C(=O)NCC(=O)N[C@@H](C)C(=O)N1CCC[C@H]1C(=O)N1CCC[C@H]1C(=O)N1CCC[C@H]1C(=O)N[C@@H](CO)C(N)=O)C(C)C [SEQ ID NO: 15]	14.3	–	–
CC[C@H](C)[C@H](NC(=O)[C@H](Cc1ccccc1)NC(=O)[C@H](CC(C)C)NC(=O)[C@H](CCCNC(=N)N)NC(=O)[C@H](C)NC(=O)[C@H](C)NC(=O)[C@H](CCC(=O)O)NC(=O)[C@H](CCC(=O)O)NC(=O)[C@H](CCC(=O)O)NC(=O)[C@H](CC(C)C)NC(=O)[C@H](Cc1ccc(O)cc1)NC(=O)[C@H](CO)NC(=O)[C@H](CO)NC(=O)[C@@H](NC(=O)[C@H](CC(=O)O)NC(C)=O)C(C)C)C(=O)N[C@@H](C)C(=O)N[C@@H](Cc1c[nH]c2ccccc12)C(=O)N[C@@H](CC(C)C)C(=O)N[C@H](C(=O)N[C@@H](CCCCNC(=O)COCCOCCNC(=O)COCCOCCNC(=O)CC[C@H](NC(=O)CCCCCCCCCCCCCCCCC(=O)O)C(=O)O)C(=O)NCC(=O)NCC(=O)N1CCC[C@H]1C(=O)N[C@@H](CO)C(=O)N[C@@H](CO)C(=O)NCC(=O)N[C@@H](C)C(=O)N1CCC[C@H]1C(=O)N1CCC[C@H]1C(=O)N1CCC[C@H]1C(=O)N[C@@H](CO)C(N)=O)C(C)C [SEQ ID NO: 16]	13.5	–	–
CC[C@H](C)[C@H](NC(=O)[C@H](Cc1ccccc1)NC(=O)[C@H](CC(C)C)NC(=O)[C@H](CCCNC(=N)N)NC(=O)[C@@H](NC(=O)[C@H](C)NC(=O)[C@H](CCC(=O)O)NC(=O)[C@H](CCC(=O)O)NC(=O)[C@H](CCC(=O)O)NC(=O)[C@H](CC(C)C)NC(=O)[C@H](Cc1ccc(O)cc1)NC(=O)[C@H](CO)NC(=O)[C@H](CO)NC(=O)[C@@H](NC(=O)[C@H](CC(=O)O)NC(C)=O)C(C)C)C(C)C)C(=O)N[C@@H](C)C(=O)N[C@@H](Cc1c[nH]c2ccccc12)C(=O)N[C@@H](CC(C)C)C(=O)N[C@H](C(=O)N[C@@H](CCCCN)C(=O)NCC(=O)NCC(=O)N1CCC[C@H]1C(=O)N[C@@H](CO)C(=O)N[C@@H](CO)C(=O)NCC(=O)N[C@@H](C)C(=O)N1CCC[C@H]1C(=O)N1CCC[C@H]1C(=O)N1CCC[C@H]1C(=O)N[C@@H](CO)C(=O)N[C@@H](CCCCNC(=O)COCCOCCNC(=O)COCCOCCNC(=O)CC[C@H](NC(=O)CCCCCCCCCCCCCCCCC(=O)O)C(=O)O)C(N)=O)C(C)C [SEQ ID NO: 18] (Ac-DVSSYLEEEAVRLFIAWLVKGGPSSGAPPPSK([AEEA-AEEA-γGlu-C18 diacid])-NH2)	19.8	–	–
DLSSYLEEEAVRLFIEWLKNGGPSSGAPPPSK(2) [SEQ ID NO: 17]	–	increased the blood glucose levels in vivo compared with the control group at all the doses	significantly increased blood glucose levels in vivo compared with PBH rats administered the excipient
